Tests used:
[1] = system: cortical neurons; assay: Glutamic acid intoxication assay (LDH release); format: cell-based, Wistar rats
Protocol: Further studies were conducted on cortical neurons intoxicated with glutamic acid according to the protocol described by Nilsen J. and Brinton R D in Impact of progestins on oestrogen-induced neuroprotection:synergy by progesterone and 19-norprogesterone and antagonism by medoxyprogesterone acetate. Endocrinology 143:205-212 2002.
(§1) Two types of primary neuronal cell cultures i.e. cortical and spinal cord neurons are isolated from 15-17 days old foetuses of female Wistar rats and cultured in neurobasal/B27 medium until cell differentiation.
The neuroprotective activity is assessed on glu-induced cortical neurons loss. The process of death is initiated by 10 min treatment of neuron cell cultures with neurotoxic concentration of glutamic acid at 100 micromol/l.
The ability of flufenazine to reverse the death process is achieved by subsequent exposure of cells to flufenazine concentrations of 100 and 200 nmol/l. The quantity of LDH released is used to estimate the degree of intoxication and the decrease of quantity released is proportional at cellular resistance to Glu neurotoxicity.
the percentage of neuronal survival obtained when intoxicated cells cultures are incubated with flufenazine is compared to cell cultures without flufenazine.

[2] = system: cortical neurons; assay: Neurotrophic assay, neurite outgrowth in cortical neuronal cultures; format: cell-based, Wistar rats; conditions: 200 nmol/l; 24 h exposure
From the text: The neurotrophic effect i.e. the neurite outgrowth with flufenazine was investigated on both cortical and spinal cord neuronal cultures according to the protocol described by Lucius R, Sievers J. in Postnatal retinal ganglion cells in vitro: protection against reactive oxygen species (ROS)-induced axonal degeneration by cocultured astrocytes Brain Res Dec. 16, 1996;743(1-2):56-62.
as §1
The ability of flufenazine to induce neurite outgrowth is investigated both in cortical and spinal cord neuronal cultures after 24 h exposure to flufenazine.
The neurite length as well as the percentage of cells with neurites are quantified by careful microscopic inspection. On cortex neurons type, the results are depicted in FIG. 4; the cortex neurotrophic effect of flufenazine (200 nmol/l) is expressed as an increase of 30% on neurites length compared to the neurites length in the control cortex neurons

[3] = system: spinal cord motoneuron cell culture; assay: Neuronal survival and proliferation of spinal cord motoneuron cell culture; format: cell-based, Wistar rats; conditions: 50, 100, 250 nmol/l; counted at 2-120 hours; compared to cultures with BDNF alone
Protocol: In vitro studies were first conducted on spinal cord motoneurons which are involved in peripheral neuropathy diseases as for example amyotrophic lateral sclerose (ALS) according to protocols described by Martinou J. C., Martinou I., Kato A. C. in Cholinergic differentiation factor (CDF/LIF) promotes survival of isolated rat embryonic motoneurons in vitro.
Cells cultures are incubated with different Fluphenazine N-Mustard dihydrochloride concentrations: 50, 100, 250 nmol/l.
Neuronal survival is then monitored at different time points; 2, 24, 48, 72, 96, 120 hours by counting the number of cells under microscope.
the percentage of neuronal survival obtained when cells cultures are incubated with flufenazine is compared to cell cultures incubated alone only with 50 microgram's of brain derived neurotrophic factor (BDNF).

[4] = system: mesencephalic neurons; conditions: 250 nmol/l
Protocol: Cortical neurons are involved in Alzheimer's disease and also in mesencephale neurons or dopaminergic neurons which are themselves involved in Parkinson's disease. (see also protocol described by Y. Mitsumotol, A. Watanabe, T. Miyauchi, F. Jimma, and T. Moriizumi in Stimulation of the regrowth of MPP+/damaged dopaminergic fibers by the treatment of mesencephalic cultures with basigin; J Neural Transm (2001) 108: 1127-1134).
The neuroprotective activity is assessed on MPP+ induced mesencephalic neuron loss with flufenazine concentration of 250 nmol/l
The cells are intoxicated by 2 micromol of MPP+ as neurotoxic during 24 h. The cell culture is then treated with 250 nm/l of flufenazine.
The percentage of mesencephalic neuronal survival obtained when intoxicated cells cultures are incubated with flufenazine is compared to cell cultures without flufenazine.

[5] = system: SOD mice; assay: Survival rate of SOD mice after oral administration; format: in vivo
Protocol: In vivo studies were conducted on transgenic animals with ALS causing mutations, a model for neurodegenerative diseases according to protocols described by Gurney Me, Pu H, Chiu Ay, Dal Canto Mc, Polchow Cy, Alexander Dd, Caliendo J, Hentati A, Kwon Yw, Deng Hx, et al. in Motor neuron degeneration in mice that express a human Cu,Zn superoxide dismutase mutation. Science (1994) 264:1772-1775; and by Mohajeri Mh, Figlewicz Da, Bohn Mc in Selective loss of alpha motoneurons innervating the medial gastrocnemius muscle in a model of amyotrophic lateral sclerosis. Exp. Neurol. (1998) 150:329-336.
Mice are used at 4 months of age i.e. about 2 weeks before the appearance of the first symptoms.
They are genotyped for SOD1 gene using PCR method.
Animals are assigned into four groups to receive a daily oral administration of 1)saline as control, 2) 0.1 mg/kg, 3) 1 mg/kg, 4) 10 mg/kg of flufenazine, until death by weakness and paralysis occurs.
Survival rate was recorded on a daily basis.

## OCCN1CCN(CCCN2c3ccccc3Sc3ccc(C(F)(F)F)cc32)CC1 [flufenazine, 4-[3-[2-(trifluoromethyl)-10H-phenothiazin-10-yl]propyl]-1-pyperazine-ethanol]
[1]; 200 nmol/l, after 10 min glutamic acid 100 micromol/l, compared to cultures without flufenazine
  increase of percentage of neuronal survival after glutamic acid intoxication: 10%
[1]; no glutamic acid, FIG. 2 left part
  effect on cell survival in the absence of neurotoxic compound: no or very slight effect
[2]
  increase on neurites length compared to control cortex neurons: 30%
[3]
  percentage of neuronal survival: increase regularly from 48 h until 120 h
[4]
  neurite expansion versus control neurons: longer neurite expansion than in control neurons
  reversal of MPP+ induced neuronal loss: reverses MPP+ induced neuronal loss to the same extent as Riluzole
[4]; after 2 micromol MPP+ during 24 h, observed after 48 hours
  increase of TH positives cells: 30%
[5]; 0.1 mg/kg daily oral
  survival of SOD mice compared to saline treated group: enhanced the survival
[5]; 1 mg/kg daily oral
  survival of SOD mice compared to saline treated group: enhanced the survival
[5]; 10 mg/kg daily oral
  survival of SOD mice compared to saline treated group: adverse effect and induced a leftward shift in the survival curve
